The source made the active and inactive calls. No cut-off for these calls is given here.
Tests used:
UACC-62 [1] = experiment: Induction of apoptosis in human UACC62 cells expressing wild-type NRAS and BRAF V600E mutant at 1-3 uM relative to control; type: functional, cell-based
[2] = Toxicity in C57BL/6J mouse assessed as effect on phosphorous level at 25 mg/kg, administered twice daily for 20 days; type: organism-based; conditions: in vivo, 480 h
[3] = target: T1, Inactive serine/threonine-protein kinase 19 (Homo sapiens) (UniProt P49842); experiment: Inhibition of STK19 in human SK-MEL-2 cells expressing NRAS Q61R and wild-type BRAF at 100 nM assessed as H3K9 methylation relative to control; type: cell-based
T1 sequence (whole entry): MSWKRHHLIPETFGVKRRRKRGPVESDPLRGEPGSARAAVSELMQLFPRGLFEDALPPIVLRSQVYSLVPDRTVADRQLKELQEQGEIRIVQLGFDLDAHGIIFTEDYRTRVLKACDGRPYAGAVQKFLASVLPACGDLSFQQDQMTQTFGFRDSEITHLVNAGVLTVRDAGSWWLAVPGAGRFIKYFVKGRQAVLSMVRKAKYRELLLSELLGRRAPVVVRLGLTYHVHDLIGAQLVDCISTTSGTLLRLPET

[4] = target: T1, Inactive serine/threonine-protein kinase 19 (Homo sapiens); experiment: Inhibition of STK19 in human WM2032 cells expressing NRAS Q61R and wild-type BRAF at 100 nM assessed as NRAS phosphorylation relative to control; type: cell-based
[5] = target: T1, Inactive serine/threonine-protein kinase 19 (Homo sapiens); experiment: Inhibition of STK19 in human WM2032 cells expressing NRAS Q61R and wild-type BRAF at 100 nM assessed as H3K9 methylation relative to control; type: cell-based
SK-MEL-2 [6] = experiment: Inhibition of G9a in nude mouse xenografted with human SK-MEL-2 cells assessed as decrease in H3K9 methylation at 50 mg/kg; type: functional, organism-based
[7] = target: T1, Inactive serine/threonine-protein kinase 19 (Homo sapiens); experiment: Inhibition of STK19 in human A375 cells expressing wild-type NRAS and BRAF V600E mutant at 1-3 uM assessed as MEK-ERK signaling relative to control; type: cell-based; conditions: A-375
[8] = Toxicity in C57BL/6J mouse assessed as brain histology at 25 mg/kg, administered twice daily for 20 days by H and E staining method; type: organism-based; conditions: in vivo, 480 h
[9] = target: T1, Inactive serine/threonine-protein kinase 19 (Homo sapiens); experiment: Inhibition of STK19 in human A375 cells expressing wild-type NRAS and BRAF V600E mutant at 1-3 uM assessed as NRAS signaling relative to control; type: cell-based; conditions: A-375
SK-MEL-2 [10] = experiment: Inhibition of G9a in nude mouse xenografted with human SK-MEL-2 cells assessed as decrease in H3K9 methylation at 25 mg/kg; type: functional, organism-based
hTERT [11] = experiment: Antitumor activity against hTERT/p53DD/CDK4 (R24C) immortal melanocytes expressing wild-type STK19 xenografted in nude mouse assessed as reduction in tumor formation; type: functional; conditions: Homo sapiens
[12] = target: T1, Inactive serine/threonine-protein kinase 19 (Homo sapiens); experiment: Inhibition of STK19 in human WM2032 cells expressing NRAS Q61R and wild-type BRAF at 1-3 uM assessed as NRAS signaling relative to control; type: cell-based
UACC-62 [13] = experiment: Growth inhibition of human UACC62 cells expressing wild-type NRAS and BRAF V600E mutant at 1-3 uM relative to control; type: functional, cell-based
[14] = target: T1, Inactive serine/threonine-protein kinase 19 (Homo sapiens); experiment: Inhibition of STK19 in human SK-MEL-2 cells expressing NRAS Q61R and wild-type BRAF at 300 nM assessed as H3K9 methylation relative to control; type: cell-based
[15] = system: T2, Inactive serine/threonine-protein kinase 19 (Homo sapiens), P49842 [D89N]; experiment: Inhibition of STK19 D89N mutant in human primary melanocytes at 0.1-3 uM relative to control; type: cell-based
T2 sequence (whole entry): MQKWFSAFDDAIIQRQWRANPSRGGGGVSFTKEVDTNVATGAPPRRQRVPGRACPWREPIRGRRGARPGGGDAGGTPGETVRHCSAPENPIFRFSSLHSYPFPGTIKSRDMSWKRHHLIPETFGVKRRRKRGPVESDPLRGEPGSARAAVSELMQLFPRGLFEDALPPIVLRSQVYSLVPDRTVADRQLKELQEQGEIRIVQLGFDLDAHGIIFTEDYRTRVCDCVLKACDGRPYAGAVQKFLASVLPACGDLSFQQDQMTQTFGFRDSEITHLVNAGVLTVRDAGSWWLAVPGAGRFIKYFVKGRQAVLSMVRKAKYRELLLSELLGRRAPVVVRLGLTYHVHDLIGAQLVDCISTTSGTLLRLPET

[16] = target: T1, Inactive serine/threonine-protein kinase 19 (Homo sapiens); experiment: Inhibition of STK19 in STK19-depleted human primary melanocytes expressing wild-type STK19 at 1-3 uM assessed as NRAS phosphorylation relative to control; type: tissue-based; conditions: Melanocyte
[17] = target: T1, Inactive serine/threonine-protein kinase 19 (Homo sapiens); experiment: Inhibition of STK19 in human SK-MEL-2 cells expressing NRAS Q61R and wild-type BRAF at 1-3 uM assessed as PI3K signaling relative to control; type: cell-based
[18] = Toxicity in C57BL/6J mouse assessed as effect on alkaline phosphatase level at 25 mg/kg, administered twice daily for 20 days; type: organism-based; conditions: in vivo, 480 h
[19] = target: T1, Inactive serine/threonine-protein kinase 19 (Homo sapiens); experiment: Inhibition of recombinant human STK19 assessed as NRAS phosphorylation at 1-3 uM relative to control
[20] = Toxicity in C57BL/6J mouse assessed as spleen histology at 25 mg/kg, administered twice daily for 20 days by H and E staining method; type: organism-based; conditions: in vivo, 480 h
A-375 = experiment: Growth inhibition of human A375 cells expressing wild-type NRAS and BRAF V600E mutant at 1-3 uM relative to control; type: functional, cell-based
SK-MEL-2 [21] = experiment: Inhibition of STK19 in nude mouse xenografted with human SK-MEL-2 cells assessed as decrease in NRAS phosphorylation at 25 mg/kg; type: functional, organism-based
[22] = Toxicity in C57BL/6J mouse assessed as effect on albumin level at 25 mg/kg, administered twice daily for 20 days; type: organism-based; conditions: in vivo, 480 h
SK-MEL-2 [23] = experiment: Induction of apoptosis in human SK-MEL-2 cells expressing NRAS Q61R and wild-type BRAF at 1-3 uM relative to control; type: functional, cell-based
hTERT [24] = experiment: Antiproliferative activity against hTERT/p53DD/CDK4 (R24C) immortal melanocytes expressing STK19 D89N mutant at 3 uM relative to control; type: functional, tissue-based; conditions: Homo sapiens
SK-MEL-2 [25] = experiment: Antitumor activity against human SK-MEL-2 cells xenografted in nude mouse assessed as inhibition of cancer cell proliferation at 50 mg/kg, administered for 21 days; type: functional, organism-based
[26] = Toxicity in C57BL/6J mouse assessed as effect on animal body weight at 25 mg/kg, administered twice daily for 20 days; type: organism-based; conditions: in vivo, 480 h
[27] = target: T1, Inactive serine/threonine-protein kinase 19 (Homo sapiens); experiment: Inhibition of STK19 in human UACC62 cells expressing wild-type NRAS and BRAF V600E mutant at 1-3 uM assessed as NRAS signaling relative to control; type: cell-based; conditions: UACC-62
[28] = target: T1, Inactive serine/threonine-protein kinase 19 (Homo sapiens); experiment: Inhibition of wild-type STK19 in human primary melanocytes at 0.1-3 uM relative to control; type: cell-based
SK-MEL-2 [29] = experiment: Antitumor activity against human SK-MEL-2 cells xenografted in nude mouse assessed as tumor growth inhibition; type: functional
[30] = target: T1, Inactive serine/threonine-protein kinase 19 (Homo sapiens); experiment: Inhibition of STK19 in human SK-MEL-2 cells expressing NRAS Q61R and wild-type BRAF at 100 nM assessed as NRAS phosphorylation relative to control; type: cell-based
SK-MEL-2 [31] = experiment: Growth inhibition of human SK-MEL-2 cells expressing NRAS Q61R and wild-type BRAF at 1-3 uM relative to control; type: functional, cell-based

COc1cc2nc(NC3CC3)nc(NC3CCN(C(C)C)CC3)c2cc1OC.O=C(O)C(F)(F)F
Activity (UACC-62 [1]): inactive | Activity [2]: Non-Toxic | inhibition [3]: inactive | inhibition [4]: Active | inhibition [5]: inactive | inhibition (SK-MEL-2 [6]): inactive | inhibition [7]: inactive | Activity [8]: Non-Toxic | inhibition [9]: inactive | inhibition (SK-MEL-2 [10]): inactive | Activity (hTERT [11]): Active | inhibition [12]: Active | Activity (UACC-62 [13]): inactive | inhibition [14]: inactive | inhibition [15]: Active | inhibition [16]: Active | inhibition [17]: Active | Activity [18]: Non-Toxic | Activity [19]: Active | Activity [20]: Non-Toxic | Activity (A-375): inactive | inhibition (SK-MEL-2 [21]): Active | Activity [22]: Non-Toxic | Activity (SK-MEL-2 [23]): Active | Activity (hTERT [24]): Active | Activity (SK-MEL-2 [25]): Active | Activity [26]: Non-Toxic | inhibition [27]: inactive | inhibition [28]: Active | TGI (SK-MEL-2 [29]): Dose-Dependent Effect | inhibition [30]: Active | Activity (SK-MEL-2 [31]): Active
